Consider eight compounds from patent US20260224538A1 (Purdue Research Foundation, priority 2023, published 2026).

Holding throughout (type): biochemical
The target in one experiment is T1, TTR101-125 (Homo sapiens, UniProt P02766).
T1 construct: TTR fragments 1-25, 26-50, 51-75, 76-100, 81-105, 101-125, and 101-125 were obtained from GenScript; purchased GenScript; host or cells: synthetic peptide
Nature of the experiment: ThT fluorescence assay of TTR101-125 fibril formation. The protocol: (§1) Thioflavin-T (ThT) fluorescence assays. Thioflavin-T (ThT) fluorescence assays were used to monitor fibril formation of recombinant Ap (fragments 1-40 and 1-42), recombinant α-syn, recombinant tau isoform 2N4R, synthetic IAPP, and synthetic TTR peptides treated with BTA and its derivatives. The IAPP ThT assay was performed in 10 mM PBS (pH 7.4) at a final concentration of 10 μM for both IAPP and ThT as published previously. Aβ fragments 1-40 and 1-42 were tested at 7 μM in 10 mM of PBS using ThT at a final concentration of 20 μM. Kinetics of α-syn fibrillization were performed as published previously.^36-37 TTR fragment kinetics of fibril formation were assessed at 10 μM in 100 mM sodium acetate buffer supplemented with 100 mM KCl and 1 mM ethylenediaminetetraacetic acid (EDTA) (pH 4) with 20 μM ThT. The fluorescence emission experiments were performed with the excitation and emission wavelengths set at 440 and 485 nm, respectively, with a Synergy HT multi-mode microplate reader (BioTek, Winooski, VT). Samples were measured in three replicates, and the experiments were repeated three times using at least two different stock solutions. For each time point, arbitrary units of fluorescence were calculated from the mean values normalized against the maximum value in each completed assay. The lag time for each condition was calculated as previously described. All results contained in histograms were presented as mean±SEM. Data were analyzed by the one-way analysis of variance with Dunnett's multiple comparisons between controls and compounds. Differences were considered statistically significant at p<0.05.

Experiment [1] deals with T2, transthyretin fragment peptide (TTR81-127) (Homo sapiens, UniProt P02766).
T2 construct: TTR fragment 81-127 was obtained from AnaSpec; purchased AnaSpec; host or cells: synthetic peptide
In words: ThT fluorescence assay of TTR81-127 fibril formation. The conditions noted are these: for remaining activity at 100 µM: compounds at 100 μM, TTR81-127 10 μM, control 0.25% DMSO, read-out: ThT TTR81-127 (%), maximum thioflavin T (ThT) intensity in percentage. The protocol: as §1

The next experiment has as its target T3, α-synuclein (α-syn) (Homo sapiens, UniProt P37840).
T3 construct: purchased rPeptide
Nature of the experiment: Thioflavin-T (ThT) fluorescence assay of α-syn fibril formation. The conditions noted are these: compounds at 100 μM, α-syn 6.25 μM, control 0.25% DMSO; for remaining activity at 100 µM: read-out: ThT a-Syn (%), maximum thioflavin T (ThT) intensity in percentage. The protocol:
as §1
(§2) Compounds with the highest anti-fibrillary activity were tested at 3.125, 6.25, 12.5, 25, 50, and 100 μM to obtain dose-response curves with prepared α-syn and 2N4R tau at 6.25 μM and 6 μM, respectively. Compounds were tested with α-syn using a previously published procedure. Concerning the tau (isoform 2N4R) kinetics of fibril formation, measurements of ThT fluorescence were performed with a solution of the protein diluted to a final concentration of 6 μM in PBS (pH 7.4) supplemented with 1.5 μM heparin, 20 μM ThT, 2.5 mM DTT, and 100 μM compound. Aliquots of the diluted protein solution (100 μL each) were pipetted into the wells of a 96-well plate, and a Teflon ball was added to each well. The plate was incubated at 37° C. with constant shaking at 1,000 rpm in a Tecan Spark plate reader. ThT fluorescence was measured every 15 minutes with excitation and emission wavelengths of 440 nm and 480 nm, and the data were plotted using GraphPad Prism.

The next experiment has as its target T4, tau isoform 2N4R (Homo sapiens, UniProt P10636).
T4 construct: made in house; host or cells: E. coli BL21(DE3)
Nature of the experiment: ThT kinetics of tau isoform 2N4R fibril formation. To be noted: tau 6 μM, compound 100 μM. The protocol: The bacterial expression plasmid consisting of the vector pRK172 carrying a cDNA encoding the human Tau 2N4R isoform was obtained from Dr. David Eliezer (Weill Cornell Medicine, New York, NJ). For protein expression, E. coli BL21(DE3) cells were transformed with the plasmid and grown in LB media supplemented with ampicillin (100 μg/mL). Protein over-expression was induced by the addition of 1 mM IPTG for 4 hours at 37° C., and cells were pelleted by centrifugation at 6,000 g for 15 minutes at 4° C. The cells were resuspended in lysis buffer (20 mM MES, 400 mM NaCl, 0.2 mM MgCl2, 1 mM EGTA, protease inhibitor cocktail (P8340, Sigma Aldrich), 0.25 mg/mL lysozyme, and 1 μg/mL DNase 1, pH 6.8) and lysed by a French press cell disruptor at 4° C., after which the lysate was boiled for 20 minutes. Denatured proteins were pelleted by centrifugation at 30,000 g for 30 minutes at 4° C., and the supernatant was dialyzed overnight against cation exchange buffer (20 mM MES, 50 mM NaCl, 1 mM MgCl2, 1 mM EGTA, 2 mM DTT, 0.1 mM PMSF, pH 6.8). The dialysate was loaded onto a HiPrep SP HP column, and proteins were eluted with a linear gradient ranging from 50 mM to 1 M NaCl. Fractions containing tau isoform 2N4R were pooled, and the resulting protein solution was dialyzed against PBS (pH 7.4) and stored at −80° C.
as §2

Where [2] appears, read: compound 100 μM, molar ratio 1:10.

T4 sequence (P10636 1-441 isoform P10636-8): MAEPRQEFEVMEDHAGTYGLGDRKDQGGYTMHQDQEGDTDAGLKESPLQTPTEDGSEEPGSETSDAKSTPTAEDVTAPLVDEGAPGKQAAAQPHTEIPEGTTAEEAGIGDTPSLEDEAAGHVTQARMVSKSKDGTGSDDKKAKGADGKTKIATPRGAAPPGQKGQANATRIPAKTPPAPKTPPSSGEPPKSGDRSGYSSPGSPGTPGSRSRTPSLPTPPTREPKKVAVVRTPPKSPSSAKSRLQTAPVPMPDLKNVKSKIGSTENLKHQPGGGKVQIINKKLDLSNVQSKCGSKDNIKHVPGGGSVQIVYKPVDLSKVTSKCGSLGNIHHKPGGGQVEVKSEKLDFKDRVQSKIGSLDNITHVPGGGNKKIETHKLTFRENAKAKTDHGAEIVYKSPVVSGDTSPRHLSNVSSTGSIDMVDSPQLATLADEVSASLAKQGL

Regarding `CC(=O)c1ccc(NC(=S)Nc2ccc(-c3nc4ccccc4s3)cc2)cc1` [Compound 2, 1-(4-acetylphenyl)-3-[4-(1,3-benzothiazol-2-yl)phenyl]thiourea], the “TTR101-125 fibril formation (ThT)” value on TTR101-125 (compound 50 μM, molar ratio 1:5) is on record as “weak in inhibiting TTR101-125 fibril formation”; on TTR101-125 (setting [2]), “to a lesser extent, compound 2 reduced fibril formation”. Also, the “TTR81-127 fibril formation (ThT)” value in experiment [1] (setting [2]) is reported as “to a lesser extent, compound 2 reduced fibril formation”.
Regarding `O=[N+]([O-])c1ccc2snc(Nc3nc(Cl)nc(Cl)n3)c2c1` [Compound 6, N-(4,6-dichloro-1,3,5-triazin-2-yl)-5-nitro-1,2-benzothiazol-3-amine], the remaining activity at 100 µM is more than 100% at α-synuclein (α-syn) and 82.6 ± 6% in experiment [1].
`O=[N+]([O-])c1ccc2snc(Nc3ncnc(Cl)n3)c2c1` [Compound 7, N-(4-chloro-1,3,5-triazin-2-yl)-5-nitro-1,2-benzothiazol-3-amine]: the remaining activity at 100 µM (at α-synuclein (α-syn); in experiment [1]) was more than 100% each time.
For the compound `O=C(Cc1ccccc1)Nc1nsc2ccc([N+](=O)[O-])cc12` [Compound 8, N-(5-nitro-1,2-benzothiazol-3-yl)-2-phenylacetamide], the remaining activity at 100 µM at α-synuclein (α-syn) is more than 100%; in experiment [1] it was 95.2 ± 1.2%.
In the same order, the values of `O=C(Cc1cccs1)Nc1nsc2ccc([N+](=O)[O-])cc12` [Compound 9] are more than 100% and 69 ± 0.1%.
As to `CC(=O)Nc1nsc2ccc([N+](=O)[O-])cc12` [Compound 10, N-(5-nitro-1,2-benzothiazol-3-yl)acetamide], the “production of tau isoform 2N4R fibrils (ThT kinetic aggregation curves)” value at tau isoform 2N4R is on record as “reduced the production of tau isoform 2N4R fibrils”. At α-synuclein (α-syn), the “ThT a-Syn (%), maximum thioflavin T (ThT) intensity in percentage” value worked out at 55.6 ± 3.2% and the remaining activity at 100 µM stood at 55.6 ± 3.2%. In experiment [1], the remaining activity at 100 µM was 90.2 ± 2.7%.
As to `O=C(CCl)Nc1nsc2ccc([N+](=O)[O-])cc12` [Compound 11, 2-chloro-N-(5-nitro-1,2-benzothiazol-3-yl)acetamide], on α-synuclein (α-syn), the “ThT a-Syn (%), maximum thioflavin T (ThT) intensity in percentage” value is 45.3 ± 12.9% and the remaining activity at 100 µM worked out at 45.3 ± 12.9%. For the same compound, in experiment [1], the remaining activity at 100 µM amounted to 59.7 ± 2.6%.
As to `CS(=O)(=O)N(c1nsc2ccc([N+](=O)[O-])cc12)S(C)(=O)=O` [Compound 12, N-methanesulfonyl-N-(5-nitro-1,2-benzothiazol-3-yl)methanesulfonamide], the remaining activity at 100 µM at α-synuclein (α-syn) was more than 100%; in experiment [1], 63 ± 17.4%.
